According to patent publication US4543408A, “Stable S-adenosylmethionine salts, the process for their preparation, and therapeutic compositions which contain them as active principle” (Bioresearch S.p.A., priority 1981, dated 1985):

Tests used:
[1] = format: physicochemical; conditions: solid salt storage; for degradation at 45° C. after 60 days: 1440 h; for degradation at 45° C. after 120 days: 2880 h; for degradation at 45° C. after 180 days: 4320 h; for degradation at 45° C. after 240 days: 5760 h; for degradation at 45° C. after 360 days: 8640 h
Protocol: Stability tests were carried out on the salts prepared in the described manner, by keeping the product in an oven temperature controlled at 45° C. and determining the percentage of residual salt at fixed times. The tests were carried out in comparison with SAM.nHCl salts in which n=1,2 and 3, prepared by the known method (U.S. Pat. No. 2,969,353), and in comparison with SAM.nH2 SO4 salts in which n=0.5,1 and 1.5, also prepared by the known method (West German patent application No. 1,803,978).
The following tables show the percentages of decomposed salt at the times indicated:
Analytical conditions used:
SAM retention time: about 400 seconds.

Residual moisture = format: physicochemical
physchem = conditions: water
[2] = Wide pharmacological screening trial; format: in vivo; conditions: independent of the anion bonded to the SAM
Excerpt: It was established that the activity of the new salts depends substantially on the capacity of the SAM^+ ion released in the organism to act as a donor of methyl groups, as the natural substrate of a large number of transmethylase enzymes which catalyse fundamental reactions of the lipid, protide and glucide metabolism.

[3] = prior-art salts; cited from earlier work
[4] = Tables 1-4, salts lyophilised without support

Row | SMILES | degradation at 45° C. after 60 days [1] [%] | degradation at 45° C. after 120 days [1] [%] | degradation at 45° C. after 180 days [1] [%] | degradation at 45° C. after 240 days [1] [%] | degradation at 45° C. after 360 days [1] [%] | residual moisture (Residual moisture; [4]) [%] | further results
1 | C[S+](CCC(N)C(=O)[O-])CC1OC(n2cnc3c(N)ncnc32)C(O)C1O (stereo not drawn) [SAM.1.5H2 SO4.nHCl, n=1] | 5 | 10 | 14 | 17 | 20 | 1 | –
2 | C[S+](CCC(N)C(=O)[O-])CC1OC(n2cnc3c(N)ncnc32)C(O)C1O (stereo not drawn) [SAM.1.5H2 SO4.nHCl, n=2] | – | 1.5 | 3 | 4.5 | 5 | 1.5 | residual moisture (Residual moisture; Tables 1-4, salts lyophilised without support, listed as SAM.2HCl.nH2 SO4, n=1.5): 1.5%
3 | C[S+](CCC(N)C(=O)[O-])CC1OC(n2cnc3c(N)ncnc32)C(O)C1O (stereo not drawn) [SAM.1.5H2 SO4.nHCl, n=3] | 5 | 10 | 14 | 17 | 20 | 2 | –
4 | C[S+](CCC(N)C(=O)[O-])CC1OC(n2cnc3c(N)ncnc32)C(O)C1O (stereo not drawn) [SAM.2.5H2 SO4] | – | 1.5 | 3 | 4.5 | 5 | – | residual moisture (Residual moisture; Tables 1-4, salts lyophilised without support, listed as SAM.nH2 SO4, n=3.5): 1.5%; solubility (physchem): > 200 mg/mL
5 | C[S+](CCC(N)C(=O)[O-])CC1OC(n2cnc3c(N)ncnc32)C(O)C1O (stereo not drawn) [SAM.2H2 SO4.0.4H2 O] | 5 | 10 | 14 | 17 | 20 | – | residual moisture (Residual moisture; Tables 1-4, salts lyophilised without support, listed as SAM.nH2 SO4, n=2): 1%
6 | C[S+](CCC(N)C(=O)[O-])CC1OC(n2cnc3c(N)ncnc32)C(O)C1O (stereo not drawn) [SAM.2HCl.nH2 SO4, n=0.5, reference compound] | 30 | 60 | 80 | 100 | 100 | 0.8 | –
7 | C[S+](CCC(N)C(=O)[O-])CC1OC(n2cnc3c(N)ncnc32)C(O)C1O (stereo not drawn) [SAM.2HCl.nH2 SO4, n=1] | 5 | 10 | 14 | 17 | 20 | 1 | –
8 | C[S+](CCC(N)C(=O)[O-])CC1OC(n2cnc3c(N)ncnc32)C(O)C1O (stereo not drawn) [SAM.2HCl.nH2 SO4, n=2] | 5 | 10 | 14 | 17 | 20 | 2 | –
9 | C[S+](CCC(N)C(=O)[O-])CC1OC(n2cnc3c(N)ncnc32)C(O)C1O (stereo not drawn) [SAM.3H2 SO4.0.7H2 O] | 5 | 10 | 14 | 17 | 20 | – | residual moisture (Residual moisture; Tables 1-4, salts lyophilised without support, listed as SAM.nH2 SO4, n=3): 2%
10 | C[S+](CCC(N)C(=O)[O-])CC1OC(n2cnc3c(N)ncnc32)C(O)C1O (stereo not drawn) [SAM.4HCl.0.4H2 O] | 5 | 10 | 14 | 17 | 20 | – | residual moisture (Residual moisture; Tables 1-4, salts lyophilised without support, listed as SAM.nHCl, n=4): 1%
11 | C[S+](CCC(N)C(=O)[O-])CC1OC(n2cnc3c(N)ncnc32)C(O)C1O (stereo not drawn) [SAM.5HCl] | – | 1.5 | 3 | 4.5 | 5 | – | residual moisture (Residual moisture; Tables 1-4, salts lyophilised without support, listed as SAM.nHCl, n=5): 1.5%; residual moisture (Residual moisture; lyophilised without support, with mannitol or with Aerosil): 1.5%; activity and toxicity characteristics [2]: highly interesting activity and toxicity characteristics
12 | C[S+](CCC(N)C(=O)[O-])CC1OC(n2cnc3c(N)ncnc32)C(O)C1O (stereo not drawn) [SAM.6HCl.0.7H2 O] | 5 | 10 | 14 | 17 | 20 | – | residual moisture (Residual moisture; Tables 1-4, salts lyophilised without support, listed as SAM.nHCl, n=6): 2%
13 | C[S+](CCC(N)C(=O)[O-])CC1OC(n2cnc3c(N)ncnc32)C(O)C1O (stereo not drawn) [SAM.nH2 SO4, n=0.5, reference compound] | 100 | 100 | 100 | 100 | 100 | 0.2 | –
14 | C[S+](CCC(N)C(=O)[O-])CC1OC(n2cnc3c(N)ncnc32)C(O)C1O (stereo not drawn) [SAM.nH2 SO4, n=1, reference compound] | 80 | 100 | 100 | 100 | 100 | 0.5 | –
15 | C[S+](CCC(N)C(=O)[O-])CC1OC(n2cnc3c(N)ncnc32)C(O)C1O (stereo not drawn) [SAM.nH2 SO4, n=1.5, reference compound] | 30 | 60 | 80 | 100 | 100 | 0.8 | –
16 | C[S+](CCC(N)C(=O)[O-])CC1OC(n2cnc3c(N)ncnc32)C(O)C1O (stereo not drawn) [SAM.nHCl, n=1, reference compound] | 100 | 100 | 100 | 100 | 100 | 0.2 | –
17 | C[S+](CCC(N)C(=O)[O-])CC1OC(n2cnc3c(N)ncnc32)C(O)C1O (stereo not drawn) [SAM.nHCl, n=2, reference compound] | 80 | 100 | 100 | 100 | 100 | 0.5 | –
18 | C[S+](CCC(N)C(=O)[O-])CC1OC(n2cnc3c(N)ncnc32)C(O)C1O (stereo not drawn) [SAM.nHCl, n=3, reference compound] | 30 | 60 | 80 | 100 | 100 | 0.8 | –
19 | C[S+](CCC(N)C(=O)[O-])CC1OC(n2cnc3c(N)ncnc32)C(O)C1O (stereo not drawn) [disulphatediparatoluene sulphonate, SAM disulphatediparatoluene sulphonate] | – | – | – | – | – | – | temperature up to which the salt is stable [3]: up to 45 °C
20 | C[S+](CCC(N)C(=O)[O-])CC1OC(n2cnc3c(N)ncnc32)C(O)C1O (stereo not drawn) [triparatoluene sulphonate, SAM triparatoluene sulphonate] | – | – | – | – | – | – | temperature up to which the salt is stable [3]: up to 25 °C
